# According to patent publication US20210369650A1, “TREATMENT OF INFLAMMATORY CONDITIONS” (UNION therapeutics A/S, priority 2018, published 2021):
# Assays:
# dendritic cell = conditions: in-vitro, Wu et al.; cited from earlier work
# [1] = system: lesional skin of patients with moderate atopic dermatitis; assay: Gene expression by qRT-PCR (TLDA) in lesional skin biopsies, Phase II atopic dermatitis study; format: in vivo, human; conditions: qRT-PCR fold change, lesional skin biopsy, Day 22, niclosamide 2% once daily
# Description: (§1) 31 patients with moderate atopic dermatitis (Investigator Global Assessment [IGA] of 3) were included in this double-blind, randomized, intraindividual vehicle-controlled, Phase 2 study to evaluate the efficacy and safety of topically applied niclosamide. Patients had at least 2 areas of at least 3×3-cm of atopic dermatitis with a Total Sign Score (TSS) of […] discontinued the study before Day 22.
# (§2) Patients received topical applications of the niclosamide 2% composition and vehicle once daily for 3 weeks, followed by a 1-week follow up period. Topical niclosamide 2% and vehicle was applied on two separate target lesions of atopic dermatitis (lesions of at least 3×3-cm that are at least 2 cm apart, excluding the face, scalp, genitals, hands, and feet). The application areas (5×5-cm) were randomized (1:1) to once daily application of niclosamide 2% or vehicle at 5 mg/cm^2/day without occlusion 6 days per week. Patients came to the study site for all study product application for a total of 3 weeks.
# (§3) Three skin biopsies were collected in all patients (one from lesional skin at baseline, pre-dosing at Day 1, and two from lesional skin at Day 22 (one where topical niclosamide 2% had been applied and one where the vehicle had been applied). The lesional skin biopsies were analysed for skin thickness and inflammation biomarkers.
# (§4) Skin barrier and inflammation biomarker levels were determined from lesional skin biopsies from application areas.
# (§5) The skin biopsy samples were analysed by immunohistochemistry (IHC), and by gene expression studies by RT-PCR using TaqMan Low Density Array (TLDA), and by microarray using Affymetrix U133A Plus 2. The immunohistochemistry (IHC) was used to analyse cell biomarkers. The methodologies as disclosed by Guttman-Yassky et al, “Major differences in inflammatory dendritic cells and their products distinguish atopic dermatitis from psoriasis”, The Journal of Allergy and Clinical Immunology, vol. 119, issue 5, pages 1210-1217, 2007, were followed except for that U133A Plus 2-set Gene Chip probe arrays was used instead of U95A-set Gene Chip probe arrays.
# Expression values (threshold cycle [Ct]) were normalized to Rplp0 by negatively transforming the Ct values to −dCt (IL17A was normalized to hARP, as analysed by qPCR). The undetected −dCt values were estimated for each gene as the 20% of the minimum across all samples. qRT-PCR expression data were modelled using a mixed effect model with Visit and Treatment Area as a fixed effect and a random intercept for each patient. This formulation intrinsically models the within patient correlation structure as in the case of a paired t-test. This approach introduces less bias than restricting the analysis for those patients who completed the study. Contrasts were used to estimate the fold changes with treatment within each treatment group and conduct hypothesis testing.
# [2] = system: lesional skin of patients with moderate atopic dermatitis; assay: Immunohistochemistry (IHC) of cell markers in lesional skin biopsies, Phase II atopic dermatitis study; format: in vivo, human; conditions: lesional skin biopsy, Day 22, 2% niclosamide
# Description: as §1, §2, §3, §5
# [3] = system: lesional skin of patients with moderate atopic dermatitis; assay: Gene expression by microarray (Affymetrix U133A Plus 2) in lesional skin biopsies, Phase II atopic dermatitis study; format: in vivo, human; conditions: microarray fold change
# Description: as §1, §2, §3, §4, §5
# Experimental design: The hybridization strategy was in concordance with experimental design principles, by for example keeping all samples from the same patient in the same date, and always include samples from every treatment arm/group.
# Quality Control and Pre-processing: Quality control of microarray chips were carried out using standard QC metrics and R package microarray Quality Control. Expression measures were obtained using GCRMA algorithm (Wu & Irizarry, 2004). Several visual and modelling techniques were used to elucidate if batch effect existed. Principal Component analysis plots were used to detect if any evident batch effect existed. If such batch effects were found, they were adjusted using Combat, an empirical Bayes method for adjusting data for batch effects that is robust to outliers in small sample sizes (Johnson, Li, & Rabinovic, 2007). The implementation of Combat by package sva was used.
# Probe-sets with at least 5% samples with expression larger than 3 (in log 2-scale) were kept for further analysis. Expression values were modelled using mixed-effect models with fixed factors Visit and Treatment Area and a random effect for each patient. Fold changes for the comparisons of interest were estimated and hypothesis testing was conducted on such comparisons using contrasts under the general framework for linear models in limma package. The inter-replicate correlation was computed by Duplicate Correlation function and the linear model was estimated by ImFit. P-values from the moderated (paired) t-test were adjusted for multiple hypotheses using the Benjamini-Hochberg procedure, which controls for FDR.
# [4] = system: lesional skin of patients with moderate atopic dermatitis; assay: Skin thickness in lesional skin biopsies at Day 22; format: in vivo, human; conditions: lesional skin biopsy, Day 22, 2% niclosamide
# Method: as §2, with “weeks. Three skin biopsies were collected in all patients (one from lesional skin at baseline, pre-dosing at Day 1, and two from lesional skin at Day 22 (one where topical niclosamide 2% had been applied and one where the vehicle had been applied). The lesional skin biopsies were analysed for skin thickness and inflammation biomarkers.” for “weeks.”
# [5] = system: lamina propria T cells (expressing CD3); conditions: WO 2017/040864; cited from earlier work
# lesional AD skin = conditions: Brunner et al; cited from earlier work
# [6] = lesional skin biopsy, Day 22, niclosamide 2% once daily
# [7] = niclosamide relative to vehicle, Day 22, 2% niclosamide, p<0.05
compound,measurement,setting,value
"O=C(Nc1ccc([N+](=O)[O-])cc1Cl)c1cc(Cl)ccc1O [Niclosamide, niclosamide]",lipopolysaccharide (LPS)-induced dendritic cell maturation and cytokine costimulatory molecule and MHC molecule expression,dendritic cell,inhibitory action
same,CXCL1 Niclosamide vs. Predose,[1],−2.80
same,CXCL10 Niclosamide vs. Vehicle,[1],−1.10
same,FLG Niclosamide vs. Predose,[1],1.50
same,FLG Niclosamide vs. Vehicle,[1],1.30
same,IL2 Niclosamide vs. Predose,[1],−1.20
same,IL17A Niclosamide vs. Vehicle,[1],−1.40
same,KRT16 Niclosamide vs. Vehicle,[1],−1.60
same,MMP12 Niclosamide vs. Vehicle,[1],−1.90
same,S100A7 Niclosamide vs. Vehicle,[1],−2.20
same,FLG Niclosamide vs. Predose,[1]; listed as niclosamide,increased significantly
same,LOR Niclosamide vs. Predose,[1]; listed as niclosamide,increased significantly
same,"Langerhans cells: langerin/CD207, compared to baseline",[2],Significant reductions
same,"dendritic cells: CD11c, compared to baseline",[2],Significant reductions
same,"dendritic cells: FceR1 in epidermis, compared to baseline",[2],Significant reductions
same,"total amount of T cells (CD3) in dermis and epidermis, compared to baseline",[2],No significant change
same,ACOX2 Niclosamide vs Predose,[3]; [6],1.40
same,ACOX2 Vehicle vs. Niclosamide,[3]; [6],−1.40
same,CCL13 Niclosamide vs Predose,[3]; [6],−1.40
same,CCL18 Niclosamide vs Predose,[3]; [6],−1.70
same,CCL20 Vehicle vs. Niclosamide,[3]; [6],2.00
same,CCR1 Niclosamide vs Predose,[3]; [6],−1.90
same,CCR5 Niclosamide vs Predose,[3]; [6],−1.40
same,CD86 Niclosamide vs Predose,[3]; [6],−1.60
same,CXCL1 Vehicle vs. Niclosamide,[3]; [6],2.10
same,FA2H Niclosamide vs Predose,[3]; [6],1.50
same,IFNGR2 Vehicle vs. Niclosamide,[3]; [6],1.10
same,IL4R Niclosamide vs Predose,[3]; [6],−1.80
same,KRT79 Vehicle vs. Niclosamide,[3]; [6],−2.00
same,S100A12 Vehicle vs. Niclosamide,[3]; [6],2.30
same,SPTLC3 Vehicle vs. Niclosamide,[3]; [6],−1.30
same,CXCL1 downregulated compared to vehicle,[3]; [7],−2.10
same,S100A12 downregulated compared to vehicle,[3]; [7],−2.30
same,skin thickness compared to baseline and compared to vehicle,[4],No differences
same,effect on lamina propria T cells (expressing CD3) isolated from IBD patients,[5],kills
dupilumab: inhibits interleukin-4 and interleukin-13 signalling by binding to interleukin-4 receptor a; FDA approved for atopic dermatitis,"expression of Th2-associated molecules, such as CCL17, CCL18, and CCL26",lesional AD skin,reduction
